Several values for one entry are separate records, joined by “and”; a condition that tells them apart may be missing. Equal entries are not always repeated. Entries after “also recorded” stand apart in the source; their conditions may differ.
What was measured:
traumatic hemophthalmia [1] = assay: Experimental traumatic hemophthalmia: preclinical and ultrasonic examination; type: in vivo, chinchilla rabbits; conditions: for Capability of ophthalmoscopy and eyeground: 3-point scale, 0 impossible, 3 details clearly visible; for Density of hemophthalmia: 100 SUD = ultrasonic sclera density; for Area of hemophthalmia / Volume of a hemophthalmia: parabulbar 0.5 ml of 1% solution daily
Method: (§1) Studies were carried out in 12 chinchilla rabbits having body weight 2.0-2.5 kg. A traumatic hemophthalmia was modeled by introduction of 0.5 to 0.7 ml of autoblood into a vitreous body through a puncture in a sclera on distance of 5 mm from a limbus, under a local anaesthesia. The basic group made with 6 rabbits (12 eyes), daily received a formulation prepared in accordance with the present invention parabulbarly (0.5 ml of 1% solution). A control group presented by 6 animals (12 eyes), daily received parabulbar emoxipin (2-ethyl-6-methyl-3-hydroxypiridin) in the same dosage. Treatment was carried out within 14 days after a trauma.
Besides the traditional ophthalmologic examination such as biomicroscopy, direct and indirect ophthalmoscopy, all the animals passed through ultrasonic scanning of an eye by means of the device “Voluson 730” (“Kretz”). The studies were carried out on the 1, 3, 7, 10 and 14th day of the experiment. For the estimation of efficiency of the treatment following tests were used: density, area, volume of a hemophthalmia and opportunity (possibility) of ophthalmoscopy of an eye ground. Density of a hemophthalmia was estimated in standard (conventional) units of density (SUD), 100 SUD were accepted for the maximal value, corresponding to the ultrasonic sclera density. Depending on the degree of acoustic density of a hemophthalmia, a high (100-50 SUD), medium (50-25 SUD) and low (less than 25 SUD) densities were distinguished. To determine the hemophthalmia the area measurement in sm^2 was used. The volume of the intraocular hemorrhage was studied with the help of 3D modelling in the B-regimen of a grey scale and measurement in sm^3.
At the ultrasonic examination of the intact rabbit's eyes, the average volume of vitreous body (1.0±0.9 sm^3) and the average area of a vitreous body (1.04±0.8 sm^2) were fixed. Proceeding from the obtained data, the total hemophthalmia (from 100 up to 50% of the vitreous body volume) was equated to the volume of 0.5-1.0 sm^3 and of 0.5-1.0 sm^2, a wide-spread hemophthalmia (50-25% of volume of a vitreous) corresponded to the area of 0.5-0.25 sm^3, both 0.5-0.25 sm^2, and the partial hemophthalmia occupied up to 0.25 sm^3 and 0.25 sm^2 (up to 25% of the vitreous volume).
Capability of the eyeground ophthalmoscopy was estimated by a 3-mark(point) scale depending on the image sharpness (0—ophthalmoscopy is impossible (not capable), 3—details of an eyeground are clearly visible).

traumatic hemophthalmia [2] = assay: Experimental traumatic hemophthalmia: biochemical parameters in blood serum, tear liquid, anterior chamber liquid and eye tissue; type: in vivo, chinchilla rabbits
Method: as §1
The materials used for biochemical examination were as follows: blood, liquid of the anterior chamber, tear liquid, tunics of eyeglobe (retina, a vitreous body). The blood was taken from the aural vein in an amount of 3 ml. Sampling of tear liquid was carried out by a microcapillary after instillation of distilled water into the conjunctival cavity. Liquid of the anterior chamber was obtained by paracentesis. The blood sampling as well as liquid of the anterior chamber and teat liquid were carried out on the 1st, 7th and 14th day of the experiment. On the 15th day of the studies, the animals were killed (pithed) by air embolism and both the eyes were enucleated. The eyes were prepared by tunic separation. Retina and vitreous body were obtained.

[3] = Antiradical activity by chemiluminescence (rate constant k7); type: physicochemical
Method: The efficiency of 3-hydroxypyridine derivatives as inhibitors of free radical reactions was determined by hemiluminescent method by means of measurement of speed constants of their reaction with ethyl-benzene k7 peroxide radicals.
The measurements of intensity of chemiluminescence (HL) have been carried out with an apparatus CNK-7, designed and made by IHF RAN USSR. A photomultiplier FAU-38 is used as an optical receiver. The fixed concentration of radicals during oxidation of […] (cumole) is controlled by an initiator being azo-bis-isobutyronitrile.
In order to increase HL emission the activator chelate Eu (europium tristenoyl triphtoroacetonate with 1,10-phenatroline) has been used that has allowed to conduct measurements at low speed values of radical initiation (W1=10^−8-10^−9 mol/I.s.) and, therefore, at small amounts of added sample. A weighed amount of samples studied was diluted in an suitable solvent (chlorobenzene or acetonitrile) and a small amount of the prepared solution (0.1-0.25 ml) was added to the reaction mixture (5-6 ml), arranged in a temperature-controlled reaction vessel of the HL-device. The change of emission intensity was recorded.

[4] = 1st day, anterior chamber liquid (ACL)
[5] = 7th day, anterior chamber liquid (ACL)
[6] = 14th day, anterior chamber liquid (ACL)

2,4,6-trimethyl-3-oxypyridine succinate [Compound Ic]
Capability of ophthalmoscopy and eyeground (traumatic hemophthalmia [1]; 1st day): 1.5 points
Density of hemophthalmia (traumatic hemophthalmia [1]; 1st day): 84 ± 2.4 SUD
Area of hemophthalmia (traumatic hemophthalmia [1]; 1st day): 0.49 ± 0.7 sm^2
Volume of a hemophthalmia (traumatic hemophthalmia [1]; 1st day): 0.53 ± 0.4 sm^3
Capability of ophthalmoscopy and eyeground (traumatic hemophthalmia [1]; 3rd day): 0-0.5 points
Density of hemophthalmia (traumatic hemophthalmia [1]; 3rd day): 72 ± 3.1 SUD
Area of hemophthalmia (traumatic hemophthalmia [1]; 3rd day): 0.74 ± 0.9 sm^2
Volume of a hemophthalmia (traumatic hemophthalmia [1]; 3rd day): 0.78 ± 0.2 sm^3
Capability of ophthalmoscopy and eyeground (traumatic hemophthalmia [1]; 7th day): 1.5 points
Density of hemophthalmia (traumatic hemophthalmia [1]; 7th day): 49±1.4 SUD
Area of hemophthalmia (traumatic hemophthalmia [1]; 7th day): 0.47 ± 0.4 sm^2
Volume of a hemophthalmia (traumatic hemophthalmia [1]; 7th day): 0.51 ± 0.6 sm^3
Capability of ophthalmoscopy and eyeground (traumatic hemophthalmia [1]; 10th day): 2.2 points
Density of hemophthalmia (traumatic hemophthalmia [1]; 10th day): 23±1.1 SUD
Hemophthalmia completely resolved (traumatic hemophthalmia [1]; 10th day, group of 6 rabbits): two animals
Area of hemophthalmia (traumatic hemophthalmia [1]; 10th day): 0.24±0.1 sm^2 and 0.2 ± 0.1 sm^2
Volume of a hemophthalmia (traumatic hemophthalmia [1]; 10th day): 0.2±0.1 sm^3 and 0.24 ± 0.1 sm^3
Hemophthalmia completely resolved (traumatic hemophthalmia [1]; 14th day): 50 % of animals
Capability of ophthalmoscopy and eyeground (traumatic hemophthalmia [1]; 14th day): 2.8 points
Density of hemophthalmia (traumatic hemophthalmia [1]; 14th day): 13±0.6 SUD
Area of hemophthalmia (traumatic hemophthalmia [1]; 14th day): 0.11 ± 0.7 sm^2
Volume of a hemophthalmia (traumatic hemophthalmia [1]; 14th day): 0.15 ± 0.2 sm^3
Efficiency on resorption of traumatic hemophthalmia (traumatic hemophthalmia [1]; conclusion in words): positive effect on the resorptive processes in a vitreous body; also recorded: much higher in comparison with emoxipin
AOA (traumatic hemophthalmia [2]; [4]): 0.4 ± 0.01 relative unit
Concentration of TBA-active products (traumatic hemophthalmia [2]; [4]): 0.97 ± 0.18 nmol/mL
Protein concentration (traumatic hemophthalmia [2]; [4]): 3.1 ± 1.2 mg/mL
AOA (traumatic hemophthalmia [2]; 1st day, blood serum (BS)): 1.7 ± 0.3 relative unit
Concentration of TBA-active products (traumatic hemophthalmia [2]; 1st day, blood serum (BS)): 1.29 ± 0.13 nmol/mL
Protein concentration (traumatic hemophthalmia [2]; 1st day, blood serum (BS)): 90.0 ± 6.0 mg/mL
AOA (traumatic hemophthalmia [2]; 1st day, tear liquid (TL)): 0.23 ± 0.02 relative unit
Concentration of TBA-active products (traumatic hemophthalmia [2]; 1st day, tear liquid (TL)): 0.14 ± 0.01 nmol/mL
Protein concentration (traumatic hemophthalmia [2]; 1st day, tear liquid (TL)): 0.32 ± 0.2 mg/mL
AOA of basic group relative to control group, average of all measured substrata (traumatic hemophthalmia [2]; 7th day): 1.5 times
AOA (traumatic hemophthalmia [2]; 7th day, anterior chamber liquid): 0.8±0.07 /100 mcl
AOA (traumatic hemophthalmia [2]; [5]): 0.8 ± 0.07 relative unit
Concentration of TBA-active products (traumatic hemophthalmia [2]; [5]): 0.8 ± 0.5 nmol/mL
Protein concentration (traumatic hemophthalmia [2]; [5]): 4.4 ± 1.2 mg/mL
AOA (traumatic hemophthalmia [2]; 7th day, blood serum): 2.4±0.02 /100 mcl
AOA (traumatic hemophthalmia [2]; 7th day, blood serum (BS)): 2.4 ± 0.02 relative unit
Concentration of TBA-active products (traumatic hemophthalmia [2]; 7th day, blood serum (BS)): 1.17 ± 0.05 nmol/mL
Protein concentration (traumatic hemophthalmia [2]; 7th day, blood serum (BS)): 82.4 ± 1.3 mg/mL
AOA (traumatic hemophthalmia [2]; 7th day, tear liquid): 0.24±0.02 /200 mcl
AOA (traumatic hemophthalmia [2]; 7th day, tear liquid (TL)): 0.24 ± 0.02 relative unit
Concentration of TBA-active products (traumatic hemophthalmia [2]; 7th day, tear liquid (TL)): 0.13 ± 0.05 nmol/mL
Protein concentration (traumatic hemophthalmia [2]; 7th day, tear liquid (TL)): 0.7 ± 0.2 mg/mL
AOA (traumatic hemophthalmia [2]; 14th day, anterior chamber liquid): 0.5±0.05 /100 mcl
AOA (traumatic hemophthalmia [2]; [6]): 0.5 ± 0.05 relative unit
Concentration of TBA-active products (traumatic hemophthalmia [2]; [6]): 0.6 ± 0.2 nmol/mL
Protein concentration (traumatic hemophthalmia [2]; [6]): 4.1 ± 1.1 mg/mL
AOA (traumatic hemophthalmia [2]; 14th day, blood serum): 1.9±0.7 /100 mcl
AOA (traumatic hemophthalmia [2]; 14th day, blood serum (BS)): 1.9 ± 0.7 relative unit
Concentration of TBA-active products (traumatic hemophthalmia [2]; 14th day, blood serum (BS)): 0.9 ± 0.15 nmol/mL
Protein concentration (traumatic hemophthalmia [2]; 14th day, blood serum (BS)): 47.0 ± 3.0 mg/mL
AOA (traumatic hemophthalmia [2]; 14th day, tear liquid): 0.08±0.02 /200 mcl
AOA (traumatic hemophthalmia [2]; 14th day, tear liquid (TL)): 0.08 ± 0.02 relative unit
Concentration of TBA-active products (traumatic hemophthalmia [2]; 14th day, tear liquid (TL)): 0.04 ± 0.07 nmol/mL
Protein concentration (traumatic hemophthalmia [2]; 14th day, tear liquid (TL)): 0.6 ± 0.2 mg/mL
AOA (traumatic hemophthalmia [2]; Retina, listed under 14th day (eyes enucleated on the 15th day)): 0.4 ± 0.07 relative unit
AOA (traumatic hemophthalmia [2]; Vitreous body, listed under 14th day (eyes enucleated on the 15th day)): 3.5 ± 0.9 relative unit
Antioxidant activity in vivo in comparison (traumatic hemophthalmia [2]; conclusion in words): higher antioxidant activity than emoxipin
Augmentation of AOA in basic group in comparison with the control group (traumatic hemophthalmia [2]; eye tunics, a retina and a vitreous body): 2 times
Antiradical activity in comparison with mexydole ([3]; result in words): two times higher antiradical activity
k7 × 10^−4 ([3]; speed constant of reaction with ethyl-benzene peroxide radicals): 9.5 l/mol × sec

— patent publication US20110045065A1, “SUBSTANCE HAVING ANTIOXIDANT, GEROPROTECTIVE AND ANTI-ISCHEMIC ACTIVITY AND METHOD FOR THE PREPARATION THEREOF” (priority 2005, published 2011)
